Results taken from PubChem BioAssay (NCI).
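All cell lines were grown in 96-well plates and treated with compound for 48 hours. Abbreviation: GI50, concentration required for 50% inhibition of growth. Definition used: TGI = concentration required for complete inhibition of growth.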

Legend:
Assay in all cases: NCI-60 cell line screen, 48 h
A549 NSCLC = system: A549 NSCLC
OVCAR-5 ovarian = system: OVCAR-5 ovarian
BT-549 breast = system: BT-549 breast
OVCAR-8 ovarian = system: OVCAR-8 ovarian
IGROV1 ovarian = system: IGROV1 ovarian
PC-3 prostate = system: PC-3 prostate
SF-295 CNS = system: SF-295 CNS
NCI-H522 lung = system: NCI-H522 lung
SK-OV-3 ovarian = system: SK-OV-3 ovarian
SNB-19 CNS = system: SNB-19 CNS

Question: `O=C(Nc1c(Cl)cccc1Cl)Oc1cccc2cccnc12` was tested. Which GI50 (A549 NSCLC) did it give?
Answer: Its GI50 is 4.47 µM.

Question: And the TGI (A549 NSCLC)?
Answer: The TGI was 40.2 µM.

Question: What about the GI50 (OVCAR-5 ovarian) of the same compound?
Answer: The GI50 was 5.01 µM.

Question: What about the TGI (OVCAR-5 ovarian) of the same compound?
Answer: The TGI was greater than 100 µM.

Question: What about the GI50 (BT-549 breast) of the same compound?
Answer: The GI50 was 8.85 µM.

Question: And the TGI (BT-549 breast)?
Answer: The TGI was 90 µM.

Question: What about the GI50 (OVCAR-8 ovarian) of the same compound?
Answer: The GI50 was 3.08 µM.

Question: And the TGI (OVCAR-8 ovarian)?
Answer: The TGI was 50 µM.

Question: And the GI50 (IGROV1 ovarian)?
Answer: The GI50 was 3.68 µM.

Question: And the TGI (IGROV1 ovarian)?
Answer: Its TGI is greater than 100 µM.

Question: And the GI50 (PC-3 prostate)?
Answer: The GI50 was 6.26 µM.

Question: And the TGI (PC-3 prostate)?
Answer: Its TGI is greater than 100 µM.

Question: And the GI50 (SF-295 CNS)?
Answer: Its GI50 is 6.68 µM.

Question: What about the TGI (SF-295 CNS) of the same compound?
Answer: The TGI was 69 µM.

Question: And the GI50 (NCI-H522 lung)?
Answer: Its GI50 is 3.71 µM.

Question: And the TGI (NCI-H522 lung)?
Answer: Its TGI is 20.3 µM.

Question: And the GI50 (SK-OV-3 ovarian)?
Answer: Its GI50 is 4.62 µM.

Question: What about the TGI (SK-OV-3 ovarian) of the same compound?
Answer: The TGI was 39.4 µM.

Question: What about the GI50 (SNB-19 CNS) of the same compound?
Answer: Its GI50 is 5.74 µM.

Question: And the TGI (SNB-19 CNS)?
Answer: The TGI was greater than 100 µM.

Question: `O=C1NC(=O)/C(=C/c2ccc3nccc(-c4ccncc4)c3c2)S1` was tested. Which GI50 (A549 NSCLC) did it give?
Answer: The GI50 was 0.61 µM.

Question: What about the TGI (A549 NSCLC) of the same compound?
Answer: The TGI was 5.24 µM.

Question: What about the GI50 (OVCAR-5 ovarian) of the same compound?
Answer: Its GI50 is 0.326 µM.

Question: What about the TGI (OVCAR-5 ovarian) of the same compound?
Answer: Its TGI is 3.89 µM.

Question: And the GI50 (BT-549 breast)?
Answer: Its GI50 is 0.212 µM.

Question: And the TGI (BT-549 breast)?
Answer: The TGI was 1.39 µM.

Question: And the GI50 (OVCAR-8 ovarian)?
Answer: The GI50 was 0.517 µM.

Question: What about the TGI (OVCAR-8 ovarian) of the same compound?
Answer: Its TGI is greater than 10 µM.

Question: And the GI50 (IGROV1 ovarian)?
Answer: Its GI50 is 0.117 µM.

Question: And the TGI (IGROV1 ovarian)?
Answer: The TGI was 0.612 µM.

Question: What about the GI50 (PC-3 prostate) of the same compound?
Answer: The GI50 was 0.282 µM.

Question: What about the TGI (PC-3 prostate) of the same compound?
Answer: The TGI was 2.9 µM.

Question: What about the GI50 (SF-295 CNS) of the same compound?
Answer: The GI50 was 0.356 µM.

Question: What about the TGI (SF-295 CNS) of the same compound?
Answer: Its TGI is 2.13 µM.

Question: What about the GI50 (NCI-H522 lung) of the same compound?
Answer: Its GI50 is 0.23 µM.

Question: What about the TGI (NCI-H522 lung) of the same compound?
Answer: Its TGI is 1.81 µM.

Question: And the GI50 (SK-OV-3 ovarian)?
Answer: Its GI50 is 0.201 µM.

Question: And the TGI (SK-OV-3 ovarian)?
Answer: The TGI was 0.918 µM.

Question: And the GI50 (SNB-19 CNS)?
Answer: Its GI50 is 0.429 µM.

Question: What about the TGI (SNB-19 CNS) of the same compound?
Answer: The TGI was 5.93 µM.

Question: With `O=[N+]([O-])c1ccc(NC(c2ccccc2)c2ccc3cccnc3c2O)cc1` (stereo not given) as the compound, how does the GI50 (A549 NSCLC) read?
Answer: Its GI50 is 0.878 µM.

Question: What about the TGI (A549 NSCLC) of the same compound?
Answer: The TGI was greater than 100 µM.

Question: What about the GI50 (OVCAR-5 ovarian) of the same compound?
Answer: The GI50 was 1.77 µM.

Question: What about the TGI (OVCAR-5 ovarian) of the same compound?
Answer: The TGI was greater than 100 µM.

Question: What about the GI50 (BT-549 breast) of the same compound?
Answer: The GI50 was 0.601 µM.

Question: And the TGI (BT-549 breast)?
Answer: The TGI was 43.2 µM.

Question: What about the GI50 (OVCAR-8 ovarian) of the same compound?
Answer: Its GI50 is 0.435 µM.

Question: What about the TGI (OVCAR-8 ovarian) of the same compound?
Answer: Its TGI is greater than 100 µM.

Question: And the GI50 (IGROV1 ovarian)?
Answer: The GI50 was 0.388 µM.

Question: And the TGI (IGROV1 ovarian)?
Answer: Its TGI is greater than 51.5 µM.

Question: What about the GI50 (PC-3 prostate) of the same compound?
Answer: Its GI50 is 0.586 µM.

Question: What about the TGI (PC-3 prostate) of the same compound?
Answer: The TGI was greater than 100 µM.

Question: And the GI50 (SF-295 CNS)?
Answer: The GI50 was 0.314 µM.

Question: And the TGI (SF-295 CNS)?
Answer: The TGI was greater than 100 µM.

Question: And the GI50 (NCI-H522 lung)?
Answer: The GI50 was 0.392 µM.

Question: And the TGI (NCI-H522 lung)?
Answer: Its TGI is greater than 100 µM.

Question: And the GI50 (SK-OV-3 ovarian)?
Answer: The GI50 was 0.5 µM.

Question: And the TGI (SK-OV-3 ovarian)?
Answer: Its TGI is greater than 100 µM.

Question: What about the GI50 (SNB-19 CNS) of the same compound?
Answer: Its GI50 is 0.551 µM.

Question: What about the TGI (SNB-19 CNS) of the same compound?
Answer: Its TGI is greater than 100 µM.

Question: What does the source list for `COc1cc2cc(C(=O)Nc3ccccc3)c(N)nc2cc1OC`?
Answer: GI50 (A549 NSCLC): 63.1 µM; TGI (A549 NSCLC): > 100 µM; GI50 (OVCAR-5 ovarian): > 100 µM; TGI (OVCAR-5 ovarian): > 100 µM; GI50 (BT-549 breast): 25.1 µM; TGI (BT-549 breast): > 100 µM; GI50 (OVCAR-8 ovarian): 33.5 µM; TGI (OVCAR-8 ovarian): > 100 µM; GI50 (IGROV1 ovarian): 56.3 µM; TGI (IGROV1 ovarian): > 100 µM; GI50 (PC-3 prostate): 31.2 µM; TGI (PC-3 prostate): > 100 µM; GI50 (SF-295 CNS): 46.7 µM; TGI (SF-295 CNS): > 100 µM; GI50 (NCI-H522 lung): 32.7 µM; TGI (NCI-H522 lung): > 100 µM; GI50 (SK-OV-3 ovarian): > 100 µM; TGI (SK-OV-3 ovarian): > 100 µM; GI50 (SNB-19 CNS): > 100 µM; TGI (SNB-19 CNS): > 100 µM
